Measurements reported in a melting point compilation (Tetko et al.).

| Compound | melting point [°C] |
| --- | --- |
| Nc1ncnc2ccccc12 | 264 to 266 |
| O=C(O)CCSCc1cn2ccccc2n1 | 95 to 98 |
| CC(CC(=N)N)NC(=O)OC(C)(C)C (configuration not stated) | 91 to 93 |
| CSc1ccc(C=NO)cc1 | 114 to 116 |
| O=C(O)c1ccc(OCc2ccccn2)cc1 | 209 to 211 |
| N#Cc1cccnc1Oc1ccc(N)cc1 | 152 to 154 |
| NC(=S)Nc1ccccc1OC(F)(F)F | 156 to 158 |
| O=C(O)C1CCCN1S(=O)(=O)c1cccs1 (configuration not stated) | 99 to 101 |
| O=C(O)c1noc(-c2ccccc2)n1 | 111 to 113 |
| OCc1cn2cc(Cl)cc(Cl)c2n1 | 177 to 179 |
| CCOC(=O)c1n[nH]sc1=N | 126 to 128 |
| CCOc1cccc(C=O)c1OC(F)F | 41 to 43 |
| COc1cc(SC#N)ccc1O | 78 to 80 |
| NC1=NC(=O)NC12CCCC2 | 250 to 252 |
| CC(=O)c1ccc(N2CCOC2=O)cc1 | 149 to 151 |
| O=C1Nc2c(cc(F)cc2[N+](=O)[O-])C1=O | 176 to 178 |
| OCc1cnn(-c2ccccc2)c1 | 63 to 67 |
| N#Cc1ccccc1COc1ccc(C(=O)O)cc1 | 211 to 213 |
| COc1ccc(-c2nnc(N)o2)cc1OC | 235 to 237 |
| NS(=O)(=O)Cc1ccc(F)cc1F | 139 to 141 |
| Nc1nonc1-c1cccc(Br)c1 | 137 to 139 |
| Clc1ccc(-c2nnc(CNC3CC3)o2)cc1 | 104 to 106 |
| Cc1sc(N)c(C(N)=O)c1C | 179 to 181 |
| N#CC1(N)CCCCC1 | 25 to 27 |

| Compound | melting point [°C] |
| --- | --- |
| COC(=O)c1c(C(=O)OC)c(-c2ccc(N)cc2)n2c1CCC2 | 182 to 184 |
| CNS(=O)(=O)c1cc(C(=O)O)c(C)o1 | 154 to 156 |
| Cc1cc(C(=O)CCl)c(C)n1-c1cccc(F)c1 | 90 to 94 |
| N#CCCSc1ccc(C(F)(F)F)cc1N | 58 to 60 |
| CNC(=O)c1cc(OC)c(OC)cc1N | 129 to 131 |
| CCCOc1cc(C=O)ccc1OC | 35 to 37 |
| O=C1C=CC(=O)N1CCc1ccccc1F | 106 to 108 |
| O=CC(Br)C=Nc1cnc(Br)cn1 (configuration not stated) | 177 to 179 |
| Cc1ccc(NC(=O)CCl)c(Br)c1 | 169 to 171 |
| NCc1ccc(OCC(N)=O)cc1 | 106 to 108 |
| NC(=O)c1cc(Br)c(N)c(Br)c1 | 182 to 184 |
| NC(CO)c1ccc(Br)cc1 (configuration not stated) | 89 to 91 |
| Cc1cccc(-n2nc(C(=O)O)cc2-c2ccc(-c3ccccc3)cc2)c1 | 215 to 217 |
| O=C(O)C1CCCN(S(=O)(=O)c2ccc(Cl)cc2)C1 (configuration not stated) | 202 to 204 |
| COc1c(Cl)cc(Cl)cc1C=O | 85 to 87 |
| CSCCC(NC(=O)Cc1ccccc1)C(=O)O (configuration not stated) | 101 to 103 |
| COC(=O)c1cc(C)nc(SC)n1 | 116 to 118 |
| O=C(Nc1ccc2c(c1)OCO2)C(Cl)(Cl)Cl | 99 to 101 |
| O=c1[nH]cnc2cc(N3CCOCC3)c([N+](=O)[O-])cc12 | 309 to 311 |
| CC(C)c1cc(O)ncn1 | 131 to 133 |
| CC(C)(C#N)NS(C)(=O)=O | 61 to 63 |
| COCCn1c(S)nc2cc(Cl)ccc21 | 195 to 197 |
| Cc1ccn2c(N)nnc2c1 | 287 to 289 |
| CCc1ccc(C(N)=NO)cc1 | 160 to 162 |

| Compound | melting point [°C] |
| --- | --- |
| COc1cc2nc(C)oc(=O)c2cc1OC | 187 to 189 |
| COC(=O)CCNC(=O)c1ccc(N)cc1 | 99 to 101 |
| Cc1ccc(OCC2CCCO2)c(S(=O)(=O)Cl)c1 (configuration not stated) | 76 to 78 |
| O=C(O)CNC(=O)CNC(=O)c1ccco1 | 208 to 210 |
| O=C(O)C1CCN(C(=O)c2cccnc2)CC1 | 188 to 190 |
| Cc1c(CCC(=O)O)cnn1C | 139 to 141 |
| COc1cccc(CC(NC(C)=O)C(=O)O)c1 (configuration not stated) | 148 to 150 |
| Nc1nc(Cl)nnc1Cl | 198 to 200 |
| O=C(O)c1cc2cc(F)ccc2s1 | 207 to 209 |
| Cn1c(=O)[nH]c(=O)c2[nH]c(CCC(=O)O)nc21 | 322 to 324 |
| COc1ccc(S(N)(=O)=O)cc1NC(C)=O | 217 to 219 |
| O=C(O)Cc1n[nH]c2ccccc12 | 167 to 169 |
| Cc1cccc(C)c1NC(=O)CCCCl | 104 to 106 |
| O=[N+]([O-])c1cccc2cc(I)cnc12 | 118 to 120 |
| Cc1nn(C)c2sc(C(=O)NC(C)C(=O)O)cc12 (configuration not stated) | 269 to 271 |
| COc1cc(OC)cc(C(=O)N2CCC(C(=O)O)CC2)c1 | 164 to 166 |
| CCCCc1nc2ccccc2[nH]1 | 149 to 151 |
| O=S(=O)(Cl)c1ccc(F)c2ncccc12 | 104 to 106 |
| O=S(=O)(Cl)c1ccc(S(=O)(=O)C(F)F)cc1 | 139 to 141 |
| O=[N+]([O-])c1ccc(-c2c[nH]cn2)cc1 | 224 to 226 |
| COc1cccc(Nc2nnc(S)s2)c1 | 208 to 210 |
| CCOC(=O)c1c(N)sc2c1CCC(CC)C2 (configuration not stated) | 88 to 90 |
| Cc1ccc(NC(=O)NC(=O)CCl)c(C)c1 | 159 to 161 |
| O=C(CCl)N1N=C(c2ccco2)CC1c1cccs1 (configuration not stated) | 153 to 155 |
